In brackets after ≈: the same amount, converted by molar mass. Read-outs that look alike come from different tables or passages of the source.
What was measured:
[1] = test system: Aspergillus niger LOCK E201; test: Antifungal activity in vitro, serial dilution in RPMI 1640; type: cell-based; settings: Table 2B
Procedure, shortened: (§1)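 Serial dilution, RPMI 1640 pH 7.0 (M27-A2 reference method); A531 read-out. IC50 = interpolated conc. at 50% of control A531; MIC = lowest conc. with A531 ≤20% of control.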

[2] = test system: Candida albicans ATCC 10231; test: as above; type: cell-based; settings: for Antifungal activity Candida albicans ATCC 10231 IC50 / Antifungal activity Candida albicans ATCC 10231 MIC: Table 2A, RPMI 1640, pH 7.0; for Antifungal activity Candida albicans ATCC 10231 IC50: A531 50% of control; for Antifungal activity Candida albicans ATCC 10231 MIC: A531 at most 20% of control; for MIC Candida albicans ATCC 10231: Table 2B
Procedure, shortened: as §1

[3] = test system: Candida arborea KKP 319; test: as above; type: cell-based; settings: Table 2B
Procedure, shortened: as §1

[4] = test system: Candida dubliniensis CBS 7987; test: as above; type: cell-based; settings: Table 2B
Procedure, shortened: as §1

[5] = test system: Candida glabrata DSM 11226; test: as above; type: cell-based; settings: Table 2A; RPMI 1640, pH 7.0
Procedure, shortened: as §1

[6] = test system: Candida krusei DSM 6128; test: as above; type: cell-based; settings: Table 2A; RPMI 1640, pH 7.0
Procedure, shortened: as §1

[7] = test system: Candida lipolytica KKP 322; test: as above; type: cell-based; settings: Table 2B
Procedure, shortened: as §1

[8] = test system: Candida parapsilosis DSM 5784; test: as above; type: cell-based; settings: Table 2B
Procedure, shortened: as §1

[9] = test system: Candida pseudotropicalis KKP 324; test: as above; type: cell-based; settings: Table 2B
Procedure, shortened: as §1

[10] = test system: Candida quilliermondii DSM 11947; test: as above; type: cell-based; settings: Table 2B
Procedure, shortened: as §1

[11] = test system: Candida stellatoidea CBS 1905; test: as above; type: cell-based; settings: Table 2B
Procedure, shortened: as §1

[12] = test system: Candida tropicalis KKP 334; test: as above; type: cell-based; settings: Table 2A; RPMI 1640, pH 7.0
Procedure, shortened: as §1

[13] = test system: Saccharomyces cerevisiae ATCC 9763; test: as above; type: cell-based; settings: for Antifungal activity Saccharomyces cerevisiae ATCC 9763 MIC: Table 2A, RPMI 1640, pH 7.0, A531 at most 20% of control; for MIC Saccharomyces cerevisiae ATCC 9763: Table 2B
Procedure, shortened: as §1

[14] = test system: Trichoderma viride LOCK E159; test: as above; type: cell-based; settings: Table 2B
Procedure, shortened: as §1

[15] = test system: Human erythrocytes; test: Hemotoxicity (hemolytic activity)
Procedure, shortened: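 Human erythrocytes in saline (2×10^7/ml) were incubated with serially diluted compound at 37 °C for 30 min, then centrifuged. Released hemoglobin was read as A540 against 0.1% Triton X-100 as full hemolysis. EH50 is the interpolated concentration giving 50% of the control A540.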

[16] = test system: Candida albicans 5674; test: Antifungal activity towards resistant (MDR) strains; type: cell-based; settings: C. albicans 5674 overexpressing CDR1 and CDR2
Experimental: (§2) The determination of antifungal activity was performed by the serial dilutions method in buffered RPMI 1640 medium, in a 96-wells microplates, according to the standard procedure (National Committee for Clinical Laboratory Standards. Reference method for broth dilution antifungal susceptibility testing of yeast, approved standard, 2nd ed. M27-A2 vol. 22 Wayne, Pa., 2002). The optical density of cells suspension was measured using a microplates reader (Victor^3, Perkin-Elmer) at the wavelength λ=660 nm (A660). On the basis of received results the diagrams on interrelation between the A660 value and the concentration of tested compound were made. From these graphs MIC values were read, that are the concentrations of tested compounds, in the presence at which A660 value is at most 20% of A660 value measured in control sample.

[17] = test system: Candida albicans B3; test: as above; type: cell-based; settings: fluconazole sensitive, parent strain for B4
Experimental: as §2

[18] = test system: Candida albicans B4; test: as above; type: cell-based; settings: fluconazole-resistant due to the overexpression of CaMDR1
Experimental: as §2

[19] = test system: Candida albicans F2; test: as above; type: cell-based; settings: fluconazole sensitive, parent strain for F5
Experimental: as §2

[20] = test system: Candida albicans F5; test: as above; type: cell-based; settings: fluconazole-resistant due to the overexpression of CaMDR1 and ERG11
Experimental: as §2

[21] = test system: Candida albicans Gu4; test: as above; type: cell-based; settings: fluconazole sensitive, parent strain for Gu5
Experimental: as §2

[22] = test system: Candida albicans Gu5; test: as above; type: cell-based; settings: fluconazole-resistant due to the overexpression of CDR1 and CDR2
Experimental: as §2

[23] = test system: Candida albicans STY19; test: as above; type: cell-based; settings: 5674 mutant derivative, deletion of CDR1
Experimental: as §2

[24] = test system: Candida albicans STY31; test: as above; type: cell-based; settings: 5674 mutant derivative, deletion of CDR1 and CDR2
Experimental: as §2

[25] = test system: Candida albicans STY7; test: as above; type: cell-based; settings: 5674 mutant derivative, deletion of CDR2
Experimental: as §2

[26] = test system: CCRF-CEM; test: Cytotoxic activity against mammalian cells in tissue culture (MTT); type: cell-based, human
Experimental: (§3) For examinations were used selected cell lines: CCRF-CEM—human acute lymphoblastic leukemia; HepG2—human malignant hepatoma; LLC-PK1—epithelial cell of pig kidney; All lines were from ATCC collection.
(§4) The study are conducted using described below methods of culturing and determination of cytotoxic activity.
(§5) CCRF-CEM cells were cultured in medium RPMI 1640+10% fetal bovine serum (FBS), LLC-PK1 cells in medium Medium 199+3% FBS, HepG2 cells in medium MEM+10% FBS. All media contained 100 μg/ml of penicillin G and streptomycin. 24-wells microplates containing appropriate medium were inoculated with the cells in amount of 1.2×10^4 cells/well and allowed to stand overnight. Next, tested compounds as solution in dimethylsulfoxide (DMSO) were added in volume of 10 μl (serial 2× dilutions). To control well 10 μl of DMSO was added. Microplates with cell suspensions were incubated for 120 h at temperature 37° C. at atmosphere of 95%/5% CO2. After incubation, to all wells 200 μl of solution of 3-(4,5-dimethylthiazole-2-yl)-2,5-diphenylotetrazole bromide (MTT) in PBS (4 mg/ml) was added and plates were further incubated for 4 h at 37° C. Next, to dissolve crystals of formazane 1 ml of DMSO was added and absorption of solutions was measured at the wavelength λ=540 nm (A540), using a microplates reader (Victor^3, Perkin-Wallac). […] From these graphs IC50 values were read, that is concentration of tested compound in the presence at which A540 value is half of A540 value measured in the control sample.

[27] = test system: HepG2; test: as above; type: cell-based, human
Experimental: as §3, §4, §5

[28] = test system: LLC-PK1; test: as above; type: cell-based, pig
Experimental: as §3, §4, §5

Molecule	MIC Aspergillus niger LOCK E201 [1] [µg/mL]	Antifungal activity Candida albicans ATCC 10231 IC50 [2] [µg/mL]	Antifungal activity Candida albicans ATCC 10231 MIC [2] [µg/mL]	MIC Candida albicans ATCC 10231 [2] [µg/mL]	MIC Candida arborea KKP 319 [3] [µg/mL]	MIC Candida dubliniensis CBS 7987 [4] [µg/mL]	Antifungal activity Candida glabrata DSM 11226 MIC [5] [µg/mL]	Antifungal activity Candida krusei DSM 6128 MIC [6] [µg/mL]	MIC Candida lipolytica KKP 322 [7] [µg/mL]	MIC Candida parapsilosis DSM 5784 [8] [µg/mL]	MIC Candida pseudotropicalis KKP 324 [9] [µg/mL]	MIC Candida quilliermondii DSM 11947 [10] [µg/mL]	MIC Candida stellatoidea CBS 1905 [11] [µg/mL]	Antifungal activity Candida tropicalis KKP 334 MIC [12] [µg/mL]	Antifungal activity Saccharomyces cerevisiae ATCC 9763 MIC [13] [µg/mL]	MIC Saccharomyces cerevisiae ATCC 9763 [13] [µg/mL]	MIC Trichoderma viride LOCK E159 [14] [µg/mL]	MIC Candida albicans 5674 [16] [µg/mL]	MIC Candida albicans B3 [17] [µg/mL]	MIC Candida albicans B4 [18] [µg/mL]	other results
CCN(CC)[C@@H](Cc1ccccc1)C(=O)NC1C(O)C(C)OC(O[C@H]2/C=C/C=C/C=C/C=C/CC/C=C/C=C/[C@H](C)[C@@H](O)[C@@H](C)[C@H](C)OC(=O)C[C@H](O)C[C@H](O)C[C@H](O)CC[C@@H](O)[C@H](O)CC3(O)C[C@H](O)[C@@H](C(=O)O)[C@H](C2)O3)C1O (stereo partly drawn) [Compound N46, N—[L-(N,N-diethyl)phenylalanyl]nystatin A1]	32 (≈ 28.3 µM)	2.83	4	4 (≈ 3.54 µM)	32 (≈ 28.3 µM)	16 (≈ 14.2 µM)	8	8	16 (≈ 14.2 µM)	32 (≈ 28.3 µM)	16 (≈ 14.2 µM)	32 (≈ 28.3 µM)	8 (≈ 7.08 µM)	4	4	4 (≈ 3.54 µM)	16 (≈ 14.2 µM)	32 (≈ 28.3 µM)	8 (≈ 7.08 µM)	8 (≈ 7.08 µM)	% of hemolysis at the concentration 60 μg ml^−1 [15]: 0.37%; MIC Candida albicans F2 [19]: 16 µg/mL (≈ 14.2 µM); MIC Candida albicans F5 [20]: 16 µg/mL (≈ 14.2 µM); MIC Candida albicans Gu4 [21]: 8 µg/mL (≈ 7.08 µM); MIC Candida albicans Gu5 [22]: 16 µg/mL (≈ 14.2 µM); MIC Candida albicans STY19 [23]: 32 µg/mL (≈ 28.3 µM); MIC Candida albicans STY31 [24]: 32 µg/mL (≈ 28.3 µM); MIC Candida albicans STY7 [25]: 32 µg/mL (≈ 28.3 µM); Cytotoxicity IC50 CCRF-CEM ([26]; CCRF-CEM, 120 h, MTT): >100 µg/mL; Cytotoxicity IC50 HepG2 ([27]; HepG2, 120 h, MTT): >100 µg/mL; Cytotoxicity IC50 LLC-PK1 ([28]; LLC-PK1, 120 h, MTT): >100 µg/mL
CC1OC(O[C@H]2/C=C/C=C/C=C/C=C/CC/C=C/C=C/[C@H](C)[C@@H](O)[C@@H](C)[C@H](C)OC(=O)C[C@H](O)C[C@H](O)C[C@H](O)CC[C@@H](O)[C@H](O)CC3(O)C[C@H](O)[C@@H](C(=O)O)[C@H](C2)O3)C(O)C(NC(=O)[C@H](N)CC(=O)OC(C)(C)C)C1O (stereo partly drawn) [Compound N41, N-D-(O-tert-butyl)asparagylnystatin A1]	8 (≈ 7.29 µM)	4.69	8	8 (≈ 7.29 µM)	8 (≈ 7.29 µM)	2 (≈ 1.82 µM)	8	8	8 (≈ 7.29 µM)	8 (≈ 7.29 µM)	4 (≈ 3.65 µM)	8 (≈ 7.29 µM)	4 (≈ 3.65 µM)	4	4	4 (≈ 3.65 µM)	32 (≈ 29.2 µM)	16 (≈ 14.6 µM)	8 (≈ 7.29 µM)	16 (≈ 14.6 µM)	% of hemolysis at the concentration 60 μg ml^−1 [15]: 0.15%; MIC Candida albicans F2 [19]: 16 µg/mL (≈ 14.6 µM); MIC Candida albicans F5 [20]: 16 µg/mL (≈ 14.6 µM); MIC Candida albicans Gu4 [21]: 8 µg/mL (≈ 7.29 µM); MIC Candida albicans Gu5 [22]: 8 µg/mL (≈ 7.29 µM); MIC Candida albicans STY19 [23]: 0.5 µg/mL (≈ 0.456 µM); MIC Candida albicans STY31 [24]: 16 µg/mL (≈ 14.6 µM); MIC Candida albicans STY7 [25]: 16 µg/mL (≈ 14.6 µM); Cytotoxicity IC50 CCRF-CEM [26]: >100 µg/mL; Cytotoxicity IC50 HepG2 [27]: >100 µg/mL; Cytotoxicity IC50 LLC-PK1 [28]: >100 µg/mL
N-fructosyl-N-methylnystatin A1 [Compound N28]	16	5.80	8	8	32	8	16	16	8	16	8	16	8	8	4	4	16	16	8	8	Hemotoxicity BEH50 ([15]; human erythrocytes, 37° C., 30 minutes, concentration causing 50% hemolysis, maximum concentration 300 μg/ml): >250 µg/mL; % of hemolysis at the concentration 60 μg ml^−1 ([15]; human erythrocytes, 60 μg ml^−1): 0.17%; MIC Candida albicans F2 [19]: 8 µg/mL; MIC Candida albicans F5 [20]: 16 µg/mL; MIC Candida albicans Gu4 [21]: 8 µg/mL; MIC Candida albicans Gu5 [22]: 16 µg/mL; MIC Candida albicans STY19 [23]: 16 µg/mL; MIC Candida albicans STY31 [24]: 16 µg/mL; MIC Candida albicans STY7 [25]: 16 µg/mL; Cytotoxicity IC50 CCRF-CEM ([26]; CCRF-CEM, 120 h, MTT): >100 µg/mL; Cytotoxicity IC50 HepG2 ([27]; HepG2, 120 h, MTT): >100 µg/mL; Cytotoxicity IC50 LLC-PK1 ([28]; LLC-PK1, 120 h, MTT): >100 µg/mL
